Converted amounts (≈) assume the structure as drawn. “And” between values parts separate entries of the source, which are not always exact repeats. Equal values may be shown once.
What was measured:
[1] = system: CC(=O)OCC1=C(C(=O)O)N2C(=O)[C@@H](NC(=O)Cc3cccs3)[C@H]2SC1; assay: purified protein, by the assay type; conditions: other: SHV-1, substrate hydrolysis, PBS pH 7.4, room temperature
[2] = system: CC1(C)S[C@@H]2[C@H](NC(=O)[C@H](N)c3ccccc3)C(=O)N2[C@H]1C(=O)O; assay: purified protein, by the assay type; conditions: other: SHV-1, substrate hydrolysis, PBS pH 7.4, room temperature
[3] = system: CCN1CCN(C(=O)N[C@@H](C(=O)N[C@@H]2C(=O)N3[C@@H]2SC(C)(C)[C@@H]3C(=O)O)c2ccccc2)C(=O)C1=O; assay: purified protein, by the assay type; conditions: other: SHV-1, substrate hydrolysis, PBS pH 7.4, room temperature
[4] = system: O=C(Cc1cccs1)N[C@@H]1C(=O)N2C(C(=O)O)=C(/C=C/c3ccc([N+](=O)[O-])cc3[N+](=O)[O-])CS[C@H]12; assay: purified protein, by the assay type; conditions: other: SHV-1, substrate hydrolysis, PBS pH 7.4, room temperature
[5] = target: T1, SHV Asn276Asp β-lactamase (Klebsiella pneumoniae, UniProt P0AD64, N270D); assay: Direct competition assay against nitrocefin; format: biochemical; conditions: for increase in Ki for Asn276Asp as compared to SHV-1: Asn276Asp vs SHV-1
[6] = target: T1, SHV Asn276Asp β-lactamase; assay: Inactivation kinetics; format: biochemical; conditions: Asn276Asp vs SHV-1
SHV-1 β-lactamase [7] = target: T2, SHV-1 β-lactamase (Klebsiella pneumoniae, UniProt P0AD64); format: biochemical
[8] = target: T1, SHV Asn276Asp β-lactamase; assay: Partition ratio; format: biochemical; conditions: rate of inhibitor hydrolysis, calculated
SHV-1 β-lactamase [9] = target: T2, SHV-1 β-lactamase; assay: biochemical
[10] = system: E. coli DH10B expressing SHV Asn276 variants; assay: MIC, agar dilution, all Asn276 variants taken together; conditions: for MIC of Asn276 variants compared to SHV-1: all Asn276 variants vs SHV-1, in words
[11] = system: E. coli DH10B expressing SHV Asn276Asp; assay: microbe, parasite or virus in culture; format: cell-based; conditions: Escherichia coli
[12] = system: E. coli DH10B expressing SHV Asn276Gly; assay: microbe, parasite or virus in culture; format: cell-based; conditions: Escherichia coli
[13] = system: E. coli DH10B expressing SHV Asn276Ser; assay: microbe, parasite or virus in culture; format: cell-based; conditions: Escherichia coli
[14] = system: E. coli DH10B expressing SHV Asn276Val; assay: microbe, parasite or virus in culture; format: cell-based; conditions: Escherichia coli
[15] = system: E. coli DH10B expressing SHV Asn276Thr; assay: microbe, parasite or virus in culture; format: cell-based; conditions: Escherichia coli
[16] = system: E. coli DH10B expressing SHV Asn276Gln, -Glu, -Cys; assay: microbe, parasite or virus in culture; format: cell-based; conditions: Escherichia coli
[17] = system: E. coli DH10B expressing SHV Asn276His; assay: microbe, parasite or virus in culture; format: cell-based; conditions: Escherichia coli
[18] = system: E. coli DH10B expressing SHV Asn276Ala, -Leu, -Ile; assay: microbe, parasite or virus in culture; format: cell-based; conditions: Escherichia coli
[19] = system: E. coli DH10B expressing SHV Asn276Lys, -Arg, -Tyr, -Phe; assay: microbe, parasite or virus in culture; format: cell-based; conditions: Escherichia coli
[20] = system: E. coli DH10B expressing SHV Asn276Met; assay: microbe, parasite or virus in culture; format: cell-based; conditions: Escherichia coli
[21] = system: E. coli DH10B expressing SHV Asn276Pro, -Trp; assay: microbe, parasite or virus in culture; format: cell-based; conditions: Escherichia coli
[22] = target: T1, SHV Asn276Asp β-lactamase; assay: Steady-state substrate hydrolysis kinetics, Asn276Asp; format: biochemical; conditions: for Km: PBS pH 7.4, room temperature
[23] = system: E. coli DH10B expressing SHV-1; assay: MIC, agar dilution, strain expressing SHV-1; conditions: Escherichia coli
E. coli DH10B = assay: MIC, lysogeny broth agar dilution, host strain; conditions: Escherichia coli

Compound: SHV-1 β-lactamase (Klebsiella pneumoniae)
- Km [1]: 29 ± 1 µM
- kcat [1]: 14 ± 1 s⁻¹
- kcat/Km [1]: 0.47 ± 0.03 µM⁻¹ s⁻¹
- Km [2]: 183 ± 34 µM
- kcat [2]: 3100 ± 300 s⁻¹
- kcat/Km [2]: 17 ± 4 µM⁻¹ s⁻¹
- Km [3]: 77 ± 7 µM
- kcat [3]: 898 ± 90 s⁻¹
- kcat/Km [3]: 12 ± 1 µM⁻¹ s⁻¹
- Km [4]: 21 ± 3 µM
- kcat [4]: 237 ± 24 s⁻¹
- kcat/Km [4]: 11 ± 2 µM⁻¹ s⁻¹

Compound: O=C(O)[C@H]1/C(=C/CO)O[C@@H]2CC(=O)N21 [clavulanate]
- increase in Ki for Asn276Asp as compared to SHV-1 [5]: 5 fold and 5.4 fold
- increase in KI for Asn276Asp as compared to SHV-1 [6]: 1.6 fold
- kcat (SHV-1 β-lactamase [7]): 0.60 ± 0.17 s⁻¹
- kcat [8]: 0.75 ± 0.18 s⁻¹

Compound: C[C@@H](O)[C@H]1C(=O)N2C(C(=O)O)=C(S[C@@H]3CN[C@H](C(=O)N(C)C)C3)[C@H](C)[C@H]12 [meropenem]
- Ki (SHV-1 β-lactamase [9]): 31 ± 3 µM
- increase in Ki for Asn276Asp as compared to SHV-1 [5]: 46 fold
- Ki ([5]; Ki, Asn276Asp, competition with NCF, corrected for NCF affinity): 1.411 ± 0.014 mM
- MIC of Asn276 variants compared to SHV-1 [10]: comparable to SHV-1

Compound: CC(=O)OCC1=C(C(=O)O)N2C(=O)[C@@H](NC(=O)Cc3cccs3)[C@H]2SC1 [cephalothin]
- MIC [11]: 8 to 16 µg/mL (≈ 20.2 to 40.4 µM)
- MIC [12]: 16 µg/mL (≈ 40.4 µM)
- MIC [13]: 16 µg/mL (≈ 40.4 µM)
- MIC [14]: 16 µg/mL (≈ 40.4 µM)
- MIC [15]: 8 to 16 µg/mL (≈ 20.2 to 40.4 µM)
- MIC [16]: 8 to 16 µg/mL (≈ 20.2 to 40.4 µM)
- MIC [17]: 16 µg/mL (≈ 40.4 µM)
- MIC [18]: 4 to 8 µg/mL (≈ 10.1 to 20.2 µM)
- MIC [19]: 4 to 8 µg/mL (≈ 10.1 to 20.2 µM)
- MIC [20]: 4 µg/mL (≈ 10.1 µM)
- MIC [21]: 4 to 8 µg/mL (≈ 10.1 to 20.2 µM)
- kcat [22]: 10 ± 1 s⁻¹
- Km [22]: 83 ± 11 µM
- MIC [23]: 64 to 128 µg/mL (≈ 161 to 323 µM)
- MIC (E. coli DH10B): 4 µg/mL (≈ 10.1 µM)
- MIC, range over the variants at Asn276 ([10]; each of the variants at Asn276): 4 to 16 µg/mL

Compound: CO/N=C(\C(=O)N[C@@H]1C(=O)N2C(C(=O)O)=C(COC(C)=O)CS[C@H]12)c1csc(N)n1 [cefotaxime]
- MIC of Asn276 variants compared to SHV-1 [10]: comparable to SHV-1

Compound: CC1(C)S[C@@H]2[C@H](NC(=O)[C@H](N)c3ccccc3)C(=O)N2[C@H]1C(=O)O [ampicillin]
- MIC [11]: 8190 µg/mL (≈ 23400 µM)
- MIC [12]: 4100 µg/mL (≈ 11700 µM)
- MIC [13]: 4100 µg/mL (≈ 11700 µM)
- MIC [14]: 2050 µg/mL (≈ 5860 µM)
- MIC [15]: 1020 to 2050 µg/mL (≈ 2930 to 5860 µM)
- MIC [16]: 1020 to 2050 µg/mL (≈ 2930 to 5860 µM)
- MIC [17]: 1020 µg/mL (≈ 2930 µM)
- MIC [18]: 256 to 512 µg/mL (≈ 733 to 1470 µM)
- MIC [19]: 64 µg/mL (≈ 183 µM)
- MIC [20]: 32 µg/mL (≈ 91.6 µM)
- MIC [21]: 8 to 16 µg/mL (≈ 22.9 to 45.8 µM)
- kcat [22]: 989 ± 99 s⁻¹
- Km [22]: 134 ± 13 µM
- MIC [23]: > 16400 µg/mL
- MIC (E. coli DH10B): 1 µg/mL (≈ 2.86 µM)

Compound: CCN1CCN(C(=O)N[C@@H](C(=O)N[C@@H]2C(=O)N3[C@@H]2SC(C)(C)[C@@H]3C(=O)O)c2ccccc2)C(=O)C1=O [piperacillin]
- MIC [11]: 512 µg/mL (≈ 989 µM)
- MIC [12]: 256 µg/mL (≈ 495 µM)
- MIC [13]: 512 µg/mL (≈ 989 µM)
- MIC [14]: 512 µg/mL (≈ 989 µM)
- MIC [15]: 128 to 256 µg/mL (≈ 247 to 495 µM)
- MIC [16]: 64 to 128 µg/mL (≈ 124 to 247 µM)
- MIC [17]: 256 µg/mL (≈ 495 µM)
- MIC [18]: 16 to 32 µg/mL (≈ 30.9 to 61.8 µM)
- MIC [19]: 8 to 16 µg/mL (≈ 15.5 to 30.9 µM)
- MIC [20]: 4 µg/mL (≈ 7.73 µM)
- MIC [21]: 2 to 4 µg/mL (≈ 3.86 to 7.73 µM)
- kcat [22]: 976 ± 98 s⁻¹
- Km [22]: 105 ± 18 µM
- MIC [23]: 2050 µg/mL (≈ 3960 µM)
- MIC (E. coli DH10B): 1 µg/mL (≈ 1.93 µM)

Compound: O=C(Cc1cccs1)N[C@@H]1C(=O)N2C(C(=O)O)=C(/C=C/c3ccc([N+](=O)[O-])cc3[N+](=O)[O-])CS[C@H]12 [Nitrocefin, nitrocefin]
- kcat [22]: 137 ± 14 s⁻¹
- Km [22]: 28 ± 3 µM

— publication PMC4030617 (Biochemistry, 2009)
